Data: patent publication US20240308878A1, “WATER TREATMENT SYSTEM, WATER TREATMENT METHOD, AND AMINE SOLUTION” (KABUSHIKI KAISHA TOSHIBA, priority 2023, published 2024)

Experiment: Heating of the separated supernatant in a thermostatic bath: separation into amine phase and aqueous phase
Type: physicochemical
From the text: The element 15 that separates the supernatant phase F into the aqueous phase H and the organic phase J and recovers the tertiary amine recovers the tertiary amine included in the supernatant phase F. As the element 15 that separates the supernatant phase F into the aqueous phase H and the organic phase J and recovers the tertiary amine, the mechanism of heating the supernatant phase F is preferable. For example, the supernatant phase F is stored in a second container, not shown, and the supernatant phase F is heated in the second container. As the temperature of the supernatant phase F is increased, the compatibility of the tertiary amine compounds of the embodiment with water changes, and supernatant phase F separates into the organic phase and the aqueous phase. The supernatant phase F separates into the aqueous phase H and the organic phase J at a higher temperature than the first mixture D which separates into the phases. It is preferable that the supernatant phase F is heated to a temperature higher than the temperature of the first mixture (the temperature at which the first mixture D is phase-separated (the temperature at which the supernatant phase F and the concentrated phase G are separated separately)). It is preferable that the supernatant phase F is heated to a temperature 5[° C.] or higher than the temperature of the first mixture D (the temperature at which the first mixture D is phase-separated (the temperature at which the supernatant phase F and the concentrated phase G are separated separately)). It is preferable that the supernatant phase F is heated to a temperature 10[° C.] or higher than the temperature of the first mixture D (the temperature at which the first mixture D is phase-separated (the temperature at which the supernatant phase F and the concentrated phase G are separated separately)). It is preferable that the supernatant phase F is heated to a temperature 20[° C.] or higher than the temperature of the first mixture D (the temperature at which the first mixture D is phase-separated (the temperature at which the supernatant phase F and the concentrated phase G are separated separately)). It is preferable that the supernatant phase F is heated to a temperature 20 [° C.] or higher than the temperature of the first mixture D. It is preferable that the supernatant phase F is heated to a temperature 30 [° C.] or higher than the temperature of the first mixture D (the temperature at which the first mixture D is phase-separated (the temperature at which the supernatant phase F and the concentrated phase G are separated separately)). The supernatant phase F is preferably heated to 35[° C.] or more and less than 90[° C.]. From the viewpoint of reducing energy consumption, it is more preferably that the supernatant phase F is heated to 35[° C.] or more and 75[° C.] or less. The supernatant phase F is preferably phase-separated at 35 [° C.] or more and less than 90[° C.]. From the viewpoint of reducing energy consumption, the supernatant phase F is more preferably phase-separated at 35[° C.] or more and less than 90[° C.]. It is preferable to use waste heat generated at a plant or the like to heat the supernatant phase F.
When the separated supernatant solution is heated in a thermostatic bath at 70[° C.], it is separated into an amine phase and an aqueous phase. When the amine phase is separated and used for the same test, the salt removal rate of 97.5 [%] is obtained, and the concentration of the lower phase being separated of 21.2 [wt %] is obtained, which is the similar results as in the first test.

[1] = supernatant of the S/F 4.0 test
[2] = supernatant of the S/F 6.0 test
[3] = supernatant of the S/F 7.0 test
[4] = supernatant of the S/F 10.0 test

Row | Compound | Separating Temperature Water/Amine [1] [°C] | Separating Temperature Water/Amine [2] [°C] | Separating Temperature Water/Amine [3] [°C] | Separating Temperature Water/Amine [4] [°C]
1 | C1CCN(CCCN2CCCC2)C1 [chemical formula (1-2)] | 70 | 70 | 60 | 70
2 | CCOC(=O)N1CCN(CCCN2CCN(C(=O)OCC)CC2)CC1 [chemical formula (2-1)] | 70 | 70 | 50 | 70
